Measurements taken from patent publication US20110071124A1, “Compounds that Inhibit Production of sAPPB and AB and Uses Thereof” (The Trustees of Columbia University in the City of New York, priority 2008, published 2011).

Assays:
[1] = system: sAPPβ (BACE1 cleavage of SEAP-APPwt) in SY5Y-BACEGFP-SEAPAPPwt cells; assay: cell-based BACE1 assay (sAPPβ modified ELISA); details: for IC50: 12 concentrations 0.1 nM to 30 μM, 96-well format (FIG. 8), read-out: cell-based IC50 (sAPPβ), 12-point dose-response
Experimental: FIG. 1. An sAPPβ assay utilized to identify inhibitors of BACE1. The assay utilizes SY5Y cells stably overexpressing BACE-GFP and SEAP-APPwt. Cells are incubated with a candidate compound for 6 hours prior to harvesting media. BACE1-mediated cleavage of APP results in the release of sAPPβ into the media. α-secretase, a competing enzyme that is non-amyloidogenic, also cleaves APP to release […]. Using an sAPPβ-specific antibody (sβwt), SEAP-sAPPβ is specifically captured in a modified ELISA assay. Detection is achieved by addition of the fluorescent alkaline phosphatase substrate, 4-methylumbelliferyl phosphate (4-MUP).
FIG. 13. […] Compounds were tested in SY5Y-BACEGFP-SEAPAPPwt cells using the cell-based BACE1 assay. Select compounds were also investigated for Aβ-lowering effect using a commercial Aβ ELISA kit (BioSource). All compounds were tested at 8 concentrations (30, 10, 3, 1, 0.3, 0.1, 0.03, and 0.01 μM), and data points were analyzed with Origin software and fitted using a logistic model for IC50 determination.
As described in the Examples below, and depicted in FIG. 1, an sAPPβ ELISA assay may comprise cells, for example, SY5Y cells, transfected with a BACE1 reporter construct, such as a GFP-tagged BACE1 (BACE-GFP), and a wild type APP reporter construct, such as a secreted alkaline phosphatase (SEAP)-tagged wild type APP (SEAP-APPwt). BACE1 cleavage of the reporter-tagged APP (e.g. SEAP-APPwt) may result in secretion into the media of SEAP-tagged sAPPβ, which may be collected and specifically captured using an sAPPβ cleavage site-specific antibody (e.g. stβwt). Following washing, a substrate may be used, for example, the fluorescent alkaline phosphatase substrate 4-methylumbelliferyl phosphate (4-MUP), to detect the captured SEAP-sAPPβ.
A cell-based modified ELISA assay for measuring sAPPβ, the secreted ectodomain of β-amyloid precursor protein (APP) following β-secretase (BACE1) cleavage, was used to identify a class of compounds that interfered with the first step of sAPPβ generation. This assay has been described in International Application PCT/US2007/015938 (Published as International Publication No. WO 08/008463), which is herein incorporated in its entirety for all purposes.
The SY5Y-BACEGFP-SEAPAPPwt cell based assay was developed to discover novel small molecule modulators of BACE1 activity. SY5Y cells were stably transfected with GFP-tagged BACE1 (BACE-GFP) and secreted alkaline phosphatase (SEAP)-tagged wildtype APP (SEAP-APPwt). BACE1 cleavage of SEAP-APPwt results in secretion into the media of SEAP-tagged sAPPβ, which is collected and specifically captured using an sAPP0 cleavage site-specific antibody (sβwt). After washing, the fluorescent alkaline phosphatase substrate 4-methylumbelliferyl phosphate (4-MUP) is used to detect the captured SEAP-sAPPβ (FIG. 1).
The 15 LDDN compounds selected based on their 3-point dose-response profile were tested at 12 concentrations (ranging from 0.1 nM to 30 μM) in the cell-based BACE1 assay. The assay was conducted in 96-well format to maximize the Z′ factor. Compounds were characterized in duplicate cell plates, each containing 12 doses of compound in triplicate. Cell viability was measured at 6 and 24 hours using Promega's Cell Titer-Glo kit according to the manufacturer's protocol. The dose-response curves for sAPPβ reduction were plotted using Origin software and fitted using a logistic model for IC50 determination.
27 structural analogs of LDN-0057228 were synthesized and tested using the cell-based BACE1 assay in SY5Y-BACEGFP-SEAPAPPwt cells (FIG. 13). 4 analogs, in addition to the parent compound, were also assessed for Aβ40 lowering activity using a commercial Aβ kit (BioSource). Because LDN-0057228 resembles CNS monoamine transporter inhibitors, this analog series was given the designation “CNS.” LDN-0057228 gave an unexpectedly low potency (IC50˜20 μM for both sAPPβ and Aβ40 reduction) compared to the ˜7 μM potency obtained using the same compound in FIG. 8.

[2] = system: SY5Y-BACEGFP-SEAPAPPwt cells; details: tagged-triazine hits, 10 μM
Experimental: Of the 147 hits selected during the primary screen, 139 were retested in a 3-point dose-response (10, 2, 0.2 μM) confirmatory screen. BACE1 assay was performed as described, and cell viability was determined by Cell Titer AQeous One cell proliferation assay (Promega). Representative data from four compounds are shown. Data points represent mean±s.d. of four determinations.
The primary screen for the nearly 3,000-compound tagged-triazine library was conducted in 96-well format by hand. Compounds were supplied in powder form in 96-well polypropylene plates. The compounds were first dissolved in DMSO to generate 10 mM stock plates, then stamped onto new polypropylene plates to make 1 mM working stock solution. For assay, 1 mM working stock solution was diluted 1:100 into cell culture media for a final concentration of 10 μM. […] Negative (DMSO) and positive (BACE inhibitor IV at 10 μM) controls were included on every screening plate in triplicate for quality control and calculation of Z′ factors.
The 144 hits from the primary screen were rescreened in triplicate at 10 μM to confirm the activity and to assess cytotoxicity.
Of the 147 hits from the primary screen, 139 were retested for 3-point dose-response at 10, 2, and 0.2 μM concentrations in quadruplicate. […] The compounds were simultaneously evaluated for cytotoxicity using the Cell Titer AQueous One cell proliferation assay (Promega). […]

[3] = target: T1, purified recombinant β-secretase (BACE1) (Homo sapiens, UniProt P56817); assay: BACE1 FRET enzymatic assay (Invitrogen); assay type: biochemical; details: for dose-dependent inhibition of β-secretase: 3 concentrations (0.1, 1, and 10 μM); for IC50: 12 doses, read-out: enzymatic IC50 (FRET-based BACE1 assay)
T1 construct: purchased Invitrogen
From the text: FIG. 10. 4 compounds reduce BACE1 activity in an enzymatic assay. To further classify the small molecule hits, a FRET-based BACE1 enzymatic assay (Invitrogen) was used to identify potential direct BACE1 inhibitors.
In other non-limiting embodiments, the effective amount of at least one compound of Formulas I-VII, and/or a compound depicted in FIG. 19, may be correlated with the compound's ability to inhibit the enzymatic activity of a BACE1 enzyme. The compound's BACE1 inhibitory effect may be assayed, for example, through use of a BACE1 FRET Assay kit (Invitrogen Corp., Carlsbad, Calif., U.S.A.), wherein the fluorescence resonance energy transfer (FRET)-based assay measures the cleavage by purified recombinant β-secretase of a peptide substrate corresponding to the BACE1 cleavage site of Swedish mutant APP. In such an assay, a greater reduction in fluorescence in the reaction mixture following incubation with a compound of the invention compared to a control cell line not contacted with the compound is correlative with the compound's therapeutic efficacy.
Because the cell-based BACE1 assay has the potential to uncover direct as well as indirect inhibitors of β-secretase, a commercial BACE1 enzymatic assay was employed to classify the small molecule hits. The BACE1 FRET Assay kit was purchased from Invitrogen and used according to the manufacturer's protocol. This fluorescence resonance energy transfer (FRET)-based assay measures the cleavage by purified recombinant β-secretase of a peptide substrate corresponding to the BACE1 cleavage site of Swedish mutant APP. The 15 LDDN hits were first tested at 3 concentrations (0.1, 1, and 10 μM) to determine if there is a dose-dependent inhibition of β-secretase.

[4] = fluorescent readout interference: BACE1 substrate standard (cleaved peptide) without BACE1 enzyme; details: highest of 12 concentrations
Experimental: Because the enzymatic assay is performed with compound in the reaction mixture (in contrast to the cell-based BACE1 assay, where the compound is washed away after antibody-mediated specific capture of sAPPβ), it is conceivable that the compound itself may interfere with the fluorescent readout of the enzymatic BACE1 assay. To explore this possibility, BACE1 substrate standard (cleaved peptide, supplied in the assay kit) was incubated with 12 concentrations of LDN-0040630, LDN-0089308, LDN-0096529, and LDN-0091841 in the absence of BACE1 enzyme.

[5] = 10 μM, triplicate rescreen of tagged-triazine hits

T1 sequence (P56817 46-501): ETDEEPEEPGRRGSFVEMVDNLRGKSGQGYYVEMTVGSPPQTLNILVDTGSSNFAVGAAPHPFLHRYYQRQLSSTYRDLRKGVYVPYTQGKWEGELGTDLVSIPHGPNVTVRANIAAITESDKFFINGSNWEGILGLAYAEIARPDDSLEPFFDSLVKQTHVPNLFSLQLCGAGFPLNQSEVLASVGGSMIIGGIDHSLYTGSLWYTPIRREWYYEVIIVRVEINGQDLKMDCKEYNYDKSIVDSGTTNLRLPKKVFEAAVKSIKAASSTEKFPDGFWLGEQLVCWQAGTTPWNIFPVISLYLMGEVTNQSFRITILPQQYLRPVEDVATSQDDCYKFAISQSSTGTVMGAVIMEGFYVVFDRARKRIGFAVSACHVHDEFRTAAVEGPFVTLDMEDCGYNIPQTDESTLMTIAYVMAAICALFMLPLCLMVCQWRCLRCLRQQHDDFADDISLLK

Row | SMILES | inhibition of sAPPβ [1, 5] | effect on cell viability [2] | increase in sAPPβ [1, 5] | IC50 [1] | dose-dependent inhibition of β-secretase [3] | IC50 [3] | maximal inhibition of the fluorescence signal in the absence of BACE1 enzyme [4]
1 | NCCOCCOCCNc1nc(N2CCCC2)nc(N2CCN(c3ccc([N+](=O)[O-])cc3)CC2)n1 [TG-CD-D7] | 43% | did not affect cell viability | – | – | – | – | –
2 | NCCOCCOCCNC(=O)c1ccc(CNc2nc(NCC3CCCCC3)nc(N3CCCCC3)n2)cc1 [AM-D-E4] | – | did not affect cell viability | 36% | – | – | – | –
3 | COc1ccccc1C(=O)Nc1nc2ccccc2n1CCOc1ccccc1 [LDN-0091841] | – | – | – | 2.61 µM | exhibited a dose-dependent effect | 5.15 µM | 25%
4 | Oc1cc(-c2ccccc2)nn1-c1nc2ccccc2[nH]1 [LDN-0089308] | – | – | – | 3.05 µM | exhibited a dose-dependent effect | 2.14 µM | 25%
